Measured values: patent publication US20210046042A1, “SUBSTANCES AND COMPOSITIONS FOR THE USE IN THE TREATMENT OF ENDOMETRIOSIS AND ENDOMETRIOSIS ASSOCIATED SYMPTOMS” (SISTEMI SALUTE S.R.L., priority 2017, published 2021)
“Also recorded” adds a separate entry of the source.

Test system: patients affected by endometriosis, IV stage (deep endometriosis, adenomyosis and ovarian endometriosis)
Assay: Clinical study on patients affected by endometriosis treated with Luteolin
Type: in vivo, human
Procedure: Clinical Study on Patients Affected by Endometriosis Treated with […]
A composition in powder for oral administration containing Luteolin (62.5 mg of extract of shells of peanuts standardized to 80% Luteolin) equal to 50 mg was prepared.
18 patients affected by endometriosis, IV stage, were identified, all of them with deep endometriosis, adenomyosis and ovarian endometriosis (endometriosis ovarian cysts larger than 3 cm), the disease diagnosis was placed with diagnostic protocol including vaginal and rectal explorations for the diagnosis of deep endometriosis, Nuclear magnetic resonance of pelvis with examination of resonance parameters for the diagnosis of adenomyosis, thickness of the neck-body junction area (JZ) of the uterus larger than 12 mm, exclusion criterion for adenomyosis thickness smaller than 8 mm, examination of the myometrium structure, examination of the myometrium thicknesses both of front and rear wall, hematic examinations comprising the marker Ca 125, the dosage of 17B-estradiol and of testosterone.
The first group constituted by 18 patients ingested 2 capsules per day, every twelve hours, for 45 days of the composition containing Luteolin 50 mg.
For the disease evaluation:
The dosage of 17B-estradiol
The dosage of testosterone
The Rectal examination for deep endometriosis
The rectal examination for deep endometriosis
The nuclear magnetic resonance of pelvis with contrast medium (gadolinium) were performed.
INCLUSION CRITERIA for experimentation
Not ingestion of pain-relieving drugs
Absence of anti-inflammatory drugs
Positive Vaginal examination
Positive rectal examination

[1] = 21st day of treatment, basal JZ>12 mm
[2] = study group, 21st day of treatment, basal VAS>=7

O=c1cc(-c2ccc(O)c(O)c2)oc2cc(O)cc(O)c12 [Luteolin, 2-(3,4-dihydroxyphenyl)-,5,7dihydroxy-4-chromenone]
Serum dosage of testosterone average value of the sample (21st day of treatment, basal 0.13 ng/ml): 0.15 ng/mL | RMN Adenomyosis JZ between 12 and 8 mm [1]: 5% | RMN Adenomyosis JZ<8 mm [1]: 95% | adenomyosis JZ (Luteolin 50 mg oral twice a day, 18 patients): < 12 mm | disease parameters (deep endometriosis, adenomyosis, ovarian endometriosis) (Luteolin 50 mg oral twice a day, 18 patients, IV stage): quick reduction; also recorded: quick decrease | average maximum diameter of the ovarian cysts (Luteolin 50 mg oral twice a day, 18 patients, from cm 5.34): 2.14 cm | side effects / voluntary suspensions of the treatment (Luteolin 50 mg oral twice a day, 45 days): No side effects | antigen marker Ca 125 (in words) (Luteolin 50 mg twice a day, all treated patients): reduced; also recorded: negativization | RMN ovarian cysts weighted average (maximum diameter) (after 21 days of therapy, basal cm 5.34): 2.14 | regression of the symptoms (after five days from the beginning of administration, constant for 45 days): almost disappeared | 17 Beta-Estradiol dosage average value of the sample (serum, 21st day of period, 21st day of treatment, basal 199 pg/ml): 196 pg/mL | Ca 125 dosage: average value (serum, 21st day of treatment, basal 72.6 UI/ml): 32.1 UI/ml | Headache (study group, 21st day of treatment, Luteolin 50 mg oral twice a day, basal 21%): 11% | Cystitis (study group, 21st day of treatment, Luteolin 50 mg oral twice a day, basal 23%): 5% | Chronic pelvic pain VAS<3 [2]: 100 | Dysmenorrhea VAS<3 [2]: 100 | Dyspareunia VAS<=3 [2]: 100
